Values quoted from earlier work in US10627374B2, “LC-MS configuration for purification and detection of analytes having a broad range of hydrophobicites” (COHESIVE TECHNOLOGIES INC., priority 2010, dated 2020).
Where two headings read alike, the source gives them in different places.

Row | SMILES | logP (Table 2) | logP (Table 1) | log P (approximate)
1 | O=c1[nH]cc(F)c(=O)[nH]1 [5-Fluorouracil] | −0.9 |  | 
2 | C[C@]12CCC(=O)C=C1CC[C@@H]1[C@@H]2[C@@H](O)C[C@@]2(C)[C@H]1CC[C@]2(O)C(=O)CO [Cortisol (hydrocortisone)] | 1.26 | 1.26 | 
3 | CN(Cc1cnc2nc(N)nc(N)c2n1)c1ccc(C(=O)N[C@@H](CCC(=O)O)C(=O)O)cc1 [Methotrexate] | 0.94 | 0.94 | 
4 | C=CC[C@@H]1/C=C(\C)C[C@H](C)C[C@H](OC)[C@H]2O[C@@](O)(C(=O)C(=O)N3CCCC[C@H]3C(=O)O[C@H](/C(C)=C/[C@@H]3CC[C@@H](O)[C@H](OC)C3)[C@H](C)[C@@H](O)CC1=O)[C@H](C)C[C@@H]2OC [Tacrolimus] | 3.3 | 3.3 | 

Other lines, results leading:

Row | logP (Table 2) | logP (Table 1) | log P (approximate) | SMILES
5 | −1.15 | −1.15 |  | CS(=O)(=O)OCCCCOS(C)(=O)=O [Busulfan]
6 | 5.01 | 5.01 | about 5.01 | CO[C@H]1C[C@@H]2CC[C@@H](C)[C@@](O)(O2)C(=O)C(=O)N2CCCC[C@H]2C(=O)O[C@H]([C@H](C)C[C@@H]2CC[C@@H](OCCO)[C@H](OC)C2)CC(=O)[C@H](C)/C=C(\C)[C@@H](O)[C@@H](OC)C(=O)[C@H](C)C[C@H](C)/C=C/C=C/C=C/1C [Everolimus]
7 | 2.07 | 2.07 |  | C[C@]12C=CC(=O)C=C1CC[C@@H]1[C@@H]2C(=O)C[C@@]2(C)[C@H]1CC[C@]2(O)C(=O)CO [Prednisone]
